Among the data in PubChem BioAssay AID743128 (Broad Institute, 2013) are AC50 and activity change, negative = inhibition values, retold here.

“And” between values parts separate entries of the source, which are not always exact repeats. Equal values may be shown once. The source made the active and inactive calls.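 How the source made its calls: active means compounds lowering the signal whose fitted half-maximal concentration is at most twice the top tested dose; inconclusive means flat curve with 30 to 70% inhibition, or poor fit; inactive means the rest.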

One assay relates to C. neoformans growth, alamar blue, 24 h. Description: antifungal activity, alamar blue, dry powder, counter-screen for C. neoformans cell wall antifungals, dose response (AID 743128).
Conditions: not given
For orientation: Alamar Blue is a resazurin reagent that responds to reducing activity.
For orientation: AC50 means the concentration at which the activity in the assay is half-maximal. With `CCOC(=O)c1c(-c2ccc(C(C)(C)C)cc2)csc1NC(=O)CN1CCN(CC)CC1`, the AC50 is 15.7 µM.
Still for that read-out and setting: then `Cc1ccccc1OCCn1c(=S)[nH]c2ccccc21`, with 8.04 µM.
As to `Cc1ccc(OCCn2c(=S)[nH]c3ccccc32)cc1`, the AC50 is 9.48 µM.
As for `S=c1[nH]c2cccc(Cl)c2n1CCOc1ccccc1`, the AC50 is 6.35 µM.
Take `S=c1[nH]c2ccccc2n1CCOc1ccc(Cl)cc1`: the AC50 is 10.9 µM.
Same read-out and setting: under `Cc1ccc(OCCn2c(=S)[nH]c3ccccc32)c(C(C)C)c1` stands 5.33 µM and 5.68 µM; under `S=c1[nH]c2ccccc2n1CCOc1ccccc1`, 24.9 µM.
On to `COC(=O)C1=C(C)N(Cc2ccc(Br)cc2)C(=S)NC1c1ccc(F)cc1` (configuration not stated), for which the AC50 was 4.9 µM.
Same read-out and setting: then `Fc1cccc2c1[nH]c(=S)n2CCOc1ccccc1`, with 25.4 µM.
Regarding `Fc1ccccc1OCCn1c(=S)[nH]c2ccccc21`, the AC50 is 25.4 µM.
As for `COC(=O)C1=C(C)N(Cc2ccccc2)C(=S)NC1c1ccc(Br)cc1` (configuration not stated), the AC50 is 8.1 µM.
Same read-out and setting: then `COC(=O)C1=C(C)N(Cc2ccc(Br)cc2)C(=S)NC1c1ccc(OC)cc1` (configuration not stated), with 9.31 µM; and `CCOC(=O)c1c(NC(=O)CN2CCN(C)CC2)sc(C)c1-c1ccc(C)cc1`, with 25.7 µM; and `Cc1ccc(OCCn2c(SCCO)nc3ccccc32)c(C(C)C)c1`, with 25.1 µM.
The same measure, in the same setting: under `CCOc1ccc(OCCn2c(=S)[nH]c3ccccc32)cc1` stands 25.5 µM; under `Cc1ccc2c(c1)[nH]c(=S)n2CCOc1ccccc1`, 24.3 µM; under `COC(=O)C1=C(C)N(Cc2ccc(F)cc2)C(=S)NC1c1cccc(F)c1` (configuration not stated), 18.3 µM.
Still for that read-out and setting: then `COC(=O)C1=C(C)N(Cc2ccc(Cl)cc2)C(=S)NC1c1ccc(Br)cc1` (configuration not stated), with 1.97 µM.
Take `CCOC(=O)c1c(-c2ccc(C(C)(C)C)cc2)csc1NC(=O)CN1CCN(C)CC1`: the AC50 is 15 µM.
`CCOC(=O)c1c(-c2ccc(-c3ccccc3)cc2)csc1NC(=O)CNCCN(C)C`: the AC50 was 21.7 µM.
The same measure, in the same setting: then `Cc1ccc(C(C)C)c(OCCn2c(=S)[nH]c3ccccc32)c1`, with 4.14 µM.

Test system in the next assay: not listed separately
The description is as above. As to conditions: C. neoformans growth, alamar blue, 24 h; at 35 µM (top of the series).
Take `O=c1[nH]c2ccccc2n1CCOc1ccccc1`: the activity change, negative = inhibition was -1.57% (inactive) and -23.3% (inactive).
As for `c1ccc(OCCn2cnc3ccccc32)cc1`, the activity change, negative = inhibition was -10.7% (inactive).
`CCOC(=O)c1c(-c2ccc(OC)cc2)csc1NC(=O)CN(C)CC(=O)N(C)C`: the activity change, negative = inhibition was -14.4% (inactive).
Consider `CCOC(=O)c1c(-c2ccc(F)cc2)csc1NC(=O)CN1CCN(C)CC1`, for which the activity change, negative = inhibition is -11.2% (inactive).
The same measure, in the same setting: under `CCOC(=O)c1c(NC(=O)CNCCN(C)C)sc(C)c1-c1ccccc1` stands -16.3% (inactive).
As for `Cc1cccc(OCCn2c(=S)[nH]c3cc(C(F)(F)F)ccc32)c1`, the activity change, negative = inhibition was 8.48% (inactive).
